Legend:
[1] = system: Epstein-Barr Virus (EBV) early antigen; conditions: published work; cited from earlier work
HSV-2 [2] = experiment: HSV-2 viral yield-reduction assay in Vero cells; format: cell-based, HSV-2 (strain 186); conditions: Human alphaherpesvirus 2, Vero, read-out: ED50 HSV-2
Protocol: (§1) Three types of antiviral assay were used for HSV studies. For plaque-elimination, Vero cells (70000 per cm^2) were infected with 50-100 PFU for 30 minutes with occasional agitation. The inoculate was replaced with medium containing 1% (v/v) fetal calf serum and supplemented with test agents as indicated (see below). After two days of culture, cells were processed using crystal violet staining and plaques were scored by visual examination (FIG. 3). For examination of anti-HSV activity in parallel cultures during biochemical experiments, the progeny virus obtained from cells and from the culture medium at 23 hours post-infection was determined by limiting dilution on Vero cells (FIG. 5A). Macroscopic viral plaques were scored after two days of incubation in medium containing 1% (w/v) carboxymethylcellulose and 0.5% (v/v) fetal calf serum. For ED50 measurements, the concentration of compound that reduced a single-cycle of viral yield by 50% relative to the control and under the specified condition was interpolated from dose-response graphs (FIG. 4, Table 1). Over the course of ten independent experiments, the mean cell-associated viral yield was 180 PFU per cell (SD=80) and 10 PFU per cell (SD=5) for HSV-1 and HSV-2 respectively. The percent viral release (into the culture medium) was 16 (SD=7) and 0.9 (SD=0.6) for HSV-1 and HSV-2 respectively. These virologic parameters were independent of viral load and serum concentration.

HSV-2 [3] = experiment: HSV-2 plaque-elimination assay in Vero cells; format: cell-based, HSV-2 (strain 186); conditions: 100 μM, data not shown
Protocol: as §1

[4] = HEL cell growth inhibition (Sulforhodamine B protein-dye binding); format: cell-based, human; conditions: human; cell growth inhibition, two days of continuous treatment
Protocol: (§2) The effect of compounds on host cell replication (CC50), was measured using Sulforhodamine B-staining and the spectrophotometric method originally developed for the NCIs's in vitro anti-cancer drug screening program (P. Skehan et al., J. Natl. Cancer. Inst. 82, 1107-1112 (1990)). The CC50 value is the concentration of compound that inhibited actively replicating cells by 50% of control respectively after two days of continuous treatment.

HEL = experiment: as above; format: cell-based, human; conditions: at 50 μM
Protocol: as §2

[5] = system: an assortment of human tumor cell lines; experiment: Replication of human tumor cell lines; format: cell-based; conditions: at 50 μM, data not shown
Protocol: as §2

HCMV [6] = experiment: HCMV cytopathogenicity (CPE) reduction assay in HEL cells; format: cell-based, HCMV (Towne)
Text: (§3) To examine whether pre-treatment of cells influenced anti-HCMV activity of 1-hydroxy-3,7-dimethoxyacridone (2), a cytopathogenicity (CPE) reduction assay was used. The protocol was like the plaque-elimination assay except HEL cells were replicated in test compound (3-12 days or from 1-4 passages) prior to infection, cultures were infected with 500-1000 PFU HCMV and after five days, cells were stained with 0.8% (w/v) crystal violet in 50% ethanol in order to achieve contrast for photography.

HEL Cells = experiment: HEL cells replicated in presence of compound for 12 days (morphology, replication rate); format: cell-based, human; conditions: 0.5 or five micromolar for 12 days (four passages)
Text: HEL Cells were replicated in the presence of either 0.5 or five micromolar compound 2 for 12 days (four passages) then they were compared to untreated HEL cells as a host for HCMV replication in the presence or absence of the drug. […] Cultures were infected with ten-times the viral load used for plaque assay and were fixed, stained and photographed after seven days of infection (panel B). A detailed method is described in the examples below. The horizontal rows labeled as HEL, HEL (0.5) and HEL (5.0) represent cells cultured in the absence or presence of 0.5 and 5 micromolar 2 respectively. Labeled columns indicate mock-infected (M), infected (I) and treated after viral infection with the same two concentrations of the compound.
as §3

Vero = Vero cell growth inhibition (Sulforhodamine B protein-dye binding); format: cell-based, African green monkey
Protocol: as §2

[7] = as above; format: cell-based, African green monkey; conditions: African green monkey; cell growth inhibition, two days of continuous treatment; read-out: CC50 Vero
Protocol: as §2

HSV-1 = HSV-1 viral yield-reduction assay in Vero cells; format: cell-based, HSV-1 (KOS); conditions: Human alphaherpesvirus 1, Vero, read-out: ED50 HSV-1
Protocol: as §1

HCMV [8] = experiment: HCMV plaque-elimination assay in HEL cells; format: cell-based, HCMV (Towne)
Protocol: Virus and cell growth inhibition assays. Established virus culture techniques were used (E.-S. Huang, and T Kowalnick, Diagnosis of human cytomegalovirus infection: laboratory approaches, in Molecular Aspects of Human Cytomegalovirus Diseases (Becker,Y., Daria, G., and Huang, E.-S. eds.), Springer-Verlag, Berlin, pp. 225-255 (1993); Akanitapichat et al., Antiviral Research 45: 123-134 (2000)) but with the following modifications. For the HCMV plaque-elimination assay, HEL cells were plated in standard medium at 60,000 per cm^2 and infected the following day with 50-100 PFU HCMV for 90 minutes with occasional agitation. The inoculate was replaced with maintenance medium containing 5% (v/v) fetal calf serum and test agents as indicated (see below). After an additional 6-10 days of culture, cells were fixed with formal saline (10% formalin in phosphate-buffered saline; PBS), stained with 0.1% (w/v) toluidine blue in PBS and plaques were scored using an inverted light microscope at 40x magnification (FIGS. 2A and 3). For ED50 determination, the value was interpolated from dose-response data and is the concentration of compound that reduced plaque formation by 50% relative to control under the specified condition.

| Molecule | concentration blocking activation of EBV early antigen [1] | EC50 (HSV-2 [2]) | effect on HSV at highest concentration tested (HSV-2 [3]) | CC50 at 2 days [4] | inhibition of HEL cell replication (HEL) | inhibition of human tumor cell line replication [5] | amelioration of HCMV cytopathogenicity after pre-treatment (HCMV [6]; HEL cells cultured 12 days in 0.5 μM before infection) | protective effect against HCMV cytopathogenicity after pre-treatment (HCMV [6]; HEL cells cultured 12 days in 5 μM before infection) | protection against HCMV cytopathogenicity (HCMV [6]; higher viral loads, with or without pretreatment of HEL cells) | effect on cell morphology and cell viability (HEL Cells) | inhibition of Vero cell replication (Vero; at 50 μM) | percent inhibition observed at the highest concentration tested, Vero growth (Vero; number in parenthesis, highest concentration tested) | CC50 at 2 days [7] | EC50 (HSV-1) | EC50 (HCMV [8]; Human betaherpesvirus 5, HEL, read-out: ED50 HCMV) | selectivity as anti-HCMV agent (HCMV [8]; cell replication vs HCMV ED50) |
| --- | --- | --- | --- | --- | --- | --- | --- | --- | --- | --- | --- | --- | --- | --- | --- | --- |
| 5-hydroxynoracronicine | submicromolar concentration | – | – | – | – | – | – | – | – | – | – | – | – | – | – | – |
| COc1cc(O)c2c(=O)c3cc(OC)ccc3[nH]c2c1 [Compound 2, 3,7-dimethoxy-1-hydroxy-acridone] | – | > 50 µM | without effect on HSV | > 50 µM | inactive | inactive | some amelioration of HCMV cytopathogenicity | even apparent in the absence of sustained treatment post-infection | did not protect against HCMV cytopathogenicity unless HEL cells were pretreated prior to viral infection | no effect on cell morphology or cell viability | inactive | 7% | > 50 µM | > 50 µM | 1.4 µM | greater than 35 fold |

From patent publication US20050049273A1, “Acridone derivatives as anti-herpesvirus agents” (priority 2003, published 2005)
